Measurements as given in patent US20080269163A1, “Methods and Compositions for Protecting Cells from Ultrasound-Mediated Cytolysis” (priority 2004, published 2008).
“Also recorded” adds a separate entry of the source. Each block holds one compound with its values, some of them ahead of it.

Experiments:
HL-60 cells [1] = test: Ultrasound-induced cytolysis of HL-60 cells, Coulter counter analysis; type: cell-based; conditions: for concentration giving complete (approximately 100%) protection from ultrasound induced cytolysis / effect on ultrasound induced cytolysis (% cytolysis): 1.057 MHz (1 MHz), 10 W; for concentration giving complete (approximately 100%) protection from ultrasound induced cytolysis / effect on ultrasound induced cytolysis (% cytolysis) / effect on ultrasound induced cytolysis: 5 s; for concentration giving complete (approximately 100%) protection from ultrasound induced cytolysis: air exposed; for change of protection from cytolysis as frequency is decreased: frequency decreased from 1 MHz to 42 kHz; for cells protected from immediate cytolysis: 7 mM HGP
Protocol: Cells: HL-60 myeloid leukemia cells (American Type Culture Collection) were grown in a suspension of RPMI 1640 medium (GIBCO, Gaithersburg, Md.) containing 10% calf serum. The population of HL-60 cells doubled every 23±1 hr (hour ±SEM) when incubated at 37° C. in a CO2 (5%) containing atmosphere. Cells were harvested, re-suspended in fresh RPMI medium and kept at 25° C. until the start of the experiment (typically less than 1 hr). […] The fraction of intact cells before and after ultrasound was determined using a Coulter multisizer (model IIe) connected to a sampling stand (model IIa). The number of intact cells was determined by counting the total number of particles under the bell shaped curve (e.g., FIG. 1a) before and following sonolysis. The cytolysis percentage was determined by subtracting the number of intact cells following sonolysis from the number of intact cells before sonolysis. This value was divided by the number of intact cells before sonolysis and multiplied by 100 to obtain the cytolysis percentage value.
The temperature of the coupling water was 25° C.
We have confirmed the validity of this technique for studying the effects of sonolysis in our ultrasound system by the trypan blue exclusion assay. The mean size of HL-60 cells was determined from the Coulter counter results prior to sonolysis and was approximately 650 μm3 (FIG. 1a) which equates to a mean cell diameter of […].
42 kHz sonolysis was conducted in a similar way but using a Branson ultrasound bath (model number 1510). […] At 42 kHz, a transducer was used to decrease the power of the bath to 50% of its original value. The temperature of the coupling water at all frequencies was 25° C.
(§1) The percentage of cytolysis of HL-60 cells was determined by measurement of the cell size distribution using a Coulter multisizer. This method correlates well with percentage cytolysis measured using the Trypan blue exclusion assay immediately following sonolysis and is explained in detail elsewhere (Miyoshi, N. et al. 2003). […] This immediate ultrasound induced cytolysis (i.e., % cytolysis) is represented in FIGS. 2, 10-12 at a concentration of zero.
42 kHz sonolysis was conducted in a similar way but using a Branson ultrasound bath (model number […]). […] At 42 kHz, a transducer was used to decrease the power of the bath to 50% of its original value. The temperature of the coupling water at all frequencies was 25° C.
as §1, with “represented” for “represented in FIGS. 2, 10-12”

HL-60 cells [2] = system: HL-60 cells
Protocol: (§2) Cell experiments were completed within 5 to 10 minutes of adding the glucopyranosides to the cell suspensions, and each data point represents an average ±SEM, where n=5 to 8. […] For this reason, we only studied the effects of MGP, HGP, HepGP and OGP on the ultrasound induced cytolysis of HL-60 cells.

HL-60 cells [3] = test: Reproduction assay of HL-60 cells following sonolysis; type: cell-based; conditions: for reproductive viability (reproduction fraction) over 24 hours after sonolysis: 5 seconds, 10 W, varying concentrations; for reproduction ratio one or two days post treatment: 7 mM HGP
Protocol: Cells were allowed to reproduce for 24 hours. Reproduction fraction ±SD (where n=6 to 8) is calculated by dividing the number of cells counted following 24 hours of reproduction by the number of cells counted at the start of incubation.
Control data points were run in triplicate with a standard deviation of less than 10%. Sonolysis points represent an average of six separate cell suspensions, with a standard deviation of less than 10%.
The reproduction ratio is the number of cells present one or two days post treatment divided by the number of cells present on the treatment day.
Reproduction Assay: for FIG. 5, a reproduction assay was conducted over a period of 10 days to determine the long term viability of cells following ultrasound treatment in the presence of either HGP or OGP at concentrations where 100% protection from cytolysis occurred. The long term viability of treated cell suspensions was compared to the long term viability of untreated control cell suspensions held under exactly the same conditions (FIG. 5). Immediately following sonolysis, a 100 μl aliquot of the 1 ml treated (or control) samples was used for Coulter counter analysis in order to confirm that 100% of the cells had survived the ultrasound treatment. Viability of the cells was determined by using a very small volume (approx. 20 μl) of suspension for trypan blue staining. The remaining ≈0.9 ml cell suspensions were diluted to 3 ml with fresh medium, centrifuged, washed with fresh medium, and finally re-suspended in fresh medium (2 ml). 100 μl of this new 2 ml of cells suspended in fresh medium was then used to determine the cell concentration. This cell concentration is defined as ‘the cell concentration at Day 0 after ultrasound treatment’ (Ci). Cell suspensions were then kept at 37° C. in a 5% CO2 incubator for a total of 10 days.
Over the 10 day period, cells had to be spun down occasionally and re-suspended in fresh medium to replenish the nutrients necessary for a healthy cell population. 100 μl aliquots of the original cell suspension were used to measure the cell concentration both before (Cfinal) and following (Cinitial) re-suspension in fresh medium. This procedure, although necessary, results in a slight underestimation in the expected number of cells on any given day, when compared to the original cell concentration, Ci. To account for this small, but significant underestimation, we calculated the actual number of cells that would have been observed had we not been periodically extracting small aliquots for the detection of cell numbers by the Coulter counter. This was done by calculating a ‘reproduction ratio’, determined by dividing Cfinal by Cinitial that was measured one or two days earlier and comparing this ratio to (Ci), to give a ‘real cell population’. It should be noted that this calculation is done simply as a matter of convenience and that the reproduction ability of the treated samples was compared to control samples that were treated in the same way over the day period, as shown in FIG. 5. Verification of this method is given by the fact that the cells of the control samples double approximately every day (FIG. 5), as expected for HL-60 cells under the conditions of incubation in the current study.

HL-60 cells [4] = test: Mechanical fragility test (Burrell wrist action shaker, glass beads), HL-60 cells; type: cell-based; conditions: for protection from mechanical induced cytolysis: 30 min shaking, 50% power, HGP 1-10 mM, HepGP 0.1-10 mM, MGP 10-30 mM, OGP 0.3-3 mM
Protocol: 10 ml borosilicate glass beads in a 125 ml conical flask. 10 ml cell suspension in the presence and absence (control) of various glucopyranosides (HGP, HepGP, MGP, and OGP) in a cell culture medium containing 10% DPBS solution. Shaking was conducted over a period of 30 minutes. Each data point represents ±SD, where n=5.
Mechanical Fragility Test: the effect of glucopyranosides on the mechanical fragility of the cells was determined by inducing mechanical shear stress to a cell suspension. This involved placing 10 mL of HL-60 cells in suspension in 125 ml sized screw capped conical flasks containing 10 mL of borosilicate solid-glass beads (Sigma-Aldrich, mean particle diameter of 3 mm), similar to the methods described elsewhere (Carstensen, E. L. et al. 1993; Miller, M. W. et al. 2003). The samples were then shaken in a Burrell wrist action shaker (model number 75, Burrell Scientific, Pittsburgh, Pa.) at 50% power for a duration of 30 minutes. Using this method, up to eight sample solutions could be run at one time. […] In samples containing glucopyranosides, the surfactant was dissolved in 1 ml of DPBS and added to 9 ml of the cell suspension.

HL-60 cells [5] = test: Exposure of HL-60 cells to glucopyranosides alone (no ultrasound); conditions: 15 minute exposure at highest concentrations used
Protocol: as §2

HL-525 cells = test: Sonolysis of HL-525 cells, % cytolysis; type: cell-based; conditions: 1 MHz (1057 kHz), 10 W, 5 sec
Protocol: Conditions: 42 kHz, 50% power, 5 sec, 20° C., % cytolysis ±SD (n=6).
Conditions: 354 kHz, 15 W, 5 sec, 20° C., % cytolysis ±SD (n=6).
Conditions: 614 kHz, 20 W, 5 sec, 20° C., % cytolysis ±SD (n=6).
Conditions: 1057 kHz, 10 W, 5 sec, 20° C., % cytolysis ±SD (n=6).

SMILES: CCCCCCCNC(=O)OC[C@H]1O[C@H](OC)[C@H](O)[C@@H](O)[C@@H]1O [ANAMEG-7, methyl-6-O—(N-heptylcarbamoyl)-α-D-glucopyranoside]
concentration giving complete (approximately 100%) protection from ultrasound induced cytolysis (HL-60 cells [1]; HL-60 cells): 3 mM

SMILES: CCCCCCCCO[C@H]1O[C@H](CO)[C@@H](O)[C@H](O)[C@H]1O [alphaOGP, n-octyl-α-D-glucopyranoside]
effect on ultrasound induced cytolysis (% cytolysis) (HL-60 cells [1]; HL-60 cells): very slight protective effect

SMILES: CCCCCCCCCCO[C@@H]1O[C@H](CO)[C@@H](O)[C@H](O)[C@H]1O [DGP, decyl-β-D-Glucopyranoside]
lysis of cells on exposure (Coulter counter, trypan blue) (HL-60 cells [2]): immediate lysis of a large population of cells

effect on reproduction rate of the cells over 120 hours (HL-60 cells [5]): no detrimental effect
SMILES: CCCCCCCO[C@@H]1O[C@H](CO)[C@@H](O)[C@H](O)[C@H]1O [HepGP, heptyl-β-D-Glucopyranoside]
effect on ultrasound induced cytolysis (% cytolysis) (HL-60 cells [1]; HL-60 cells): fully protects
concentration giving complete (approximately 100%) protection from ultrasound induced cytolysis (HL-60 cells [1]; HL-60 cells): 3 mM
effect on ultrasound induced cytolysis (HL-60 cells [1]; HL-60 cells, 42 kHz, 50% power): very small sonosensitization
effect on ultrasound induced cytolysis (HL-60 cells [1]; HL-60 cells, 614 kHz, 20 W): fully protects
change of protection from cytolysis as frequency is decreased (HL-60 cells [1]; HL-60 cells): less effective
reproductive viability (reproduction fraction) over 24 hours after sonolysis (HL-60 cells [3]): continue to reproduce at the same rate as untreated control samples
protection from mechanical induced cytolysis (HL-60 cells [4]): none of the glucopyranosides tested
effect on cell membrane stability to mechanical shear stress (HL-60 cells [4]; relatively high concentrations): significant destabilization of the cell membrane to mechanical shear stress

effect on reproduction rate of the cells over 120 hours (HL-60 cells [5]): no detrimental effect
SMILES: CCCCCCO[C@@H]1O[C@H](CO)[C@@H](O)[C@H](O)[C@H]1O [HGP, hexyl-β-D-Glucopyranoside]
cells protected from immediate cytolysis (HL-60 cells [1]; 354 kHz): 100%
cells protected from immediate cytolysis (HL-60 cells [1]; 614 kHz): 100%
ultrasound induced cytolysis (HL-60 cells [1]; HGP 5 mM, 1.057 MHz, 15 seconds, 30 W): eliminated
protection from sonolysis under a range of ultrasound intensities and exposure times (HL-60 cells [1]; HGP 5 mM, 1.057 MHz, extreme conditions with almost 100% cytolysis without HGP): could protect cells from cytolysis even during extreme conditions of sonolysis
effect on ultrasound induced cytolysis (% cytolysis) (HL-60 cells [1]; HL-60 cells): fully protects
effect on ultrasound induced cytolysis (HL-60 cells [1]; HL-60 cells, 42 kHz, 50% power): very small sonosensitization; also recorded: not at 42 kHz
effect on ultrasound induced cytolysis (HL-60 cells [1]; HL-60 cells, 354 kHz, 15 W): fully protects
effect on ultrasound induced cytolysis (HL-60 cells [1]; HL-60 cells, 614 kHz, 20 W): fully protects
change of protection from cytolysis as frequency is decreased (HL-60 cells [1]; HL-60 cells): less effective
reproduction ratio one or two days post treatment (HL-60 cells [3]; 354 kHz): continue to reproduce at the same rate
reproduction ratio one or two days post treatment (HL-60 cells [3]; 614 kHz): continue to reproduce at the same rate
reproduction of treated cells over 10 days (HL-60 cells [3]; HGP 5 mM, 1.057 MHz, 15 seconds, 40 W and 60 W): continue to reproduce at a rate comparable to that of untreated control cells
reproductive viability (reproduction fraction) over 24 hours after sonolysis (HL-60 cells [3]): continue to reproduce at the same rate as untreated control samples
protection from mechanical induced cytolysis (HL-60 cells [4]): none of the glucopyranosides tested

SMILES: CCCCCCO[C@@H]1O[C@H](CO)[C@@H](O[C@H]2O[C@H](CO)[C@@H](O)[C@H](O)[C@H]2O)[C@H](O)[C@H]1O [HMP, Hexyl-β-D maltopyranoside]
concentration giving complete (approximately 100%) protection from ultrasound induced cytolysis (HL-60 cells [1]; HL-60 cells): 1 mM

SMILES: OC[C@H]1O[C@@H](OCCCC2CCCCC2)[C@H](O)[C@@H](O)[C@@H]1O [Cyglu-3, 3-cyclohexyl-1-propyl-β-D-glucoside]
concentration giving complete (approximately 100%) protection from ultrasound induced cytolysis (HL-60 cells [1]; HL-60 cells): 5 mM

effect on reproduction rate of the cells over 120 hours (HL-60 cells [5]): no detrimental effect
SMILES: CO[C@@H]1O[C@H](CO)[C@@H](O)[C@H](O)[C@H]1O [MGP, Methyl-β-D-Glucopyranoside, reference compound]
effect on ultrasound induced cytolysis (% cytolysis) (HL-60 cells [1]; HL-60 cells): no effect
effect on ultrasound induced cytolysis at any ultrasound frequency (HL-60 cells [1]; HL-60 cells, 42 kHz to 1 MHz, MGP 10 to 30 mM): effectively has no effect
protection from mechanical induced cytolysis (HL-60 cells [4]): none of the glucopyranosides tested
protective effect for HL-525 cells compared to HL-60 cells (HL-525 cells): different protection effects
